# Patent US11370794B2, “Toll-like receptor antagonist compounds and methods of use” (Dynavax Technologies Corporation, priority 2016, dated 2022)
# Like-named read-outs stand apart in the source and are kept apart here.
# Tests used:
# human TLR8 = molecular target: T1, human TLR8 (Homo sapiens, UniProt Q9NR97); assay: Inhibition of human TLR8 in human monocytes (TNF-alpha / IL-1 beta ELISA); type: cell-based; conditions: human monocytes, agonist ORN8L 100 μg/mL, 24 hours
# T1 construct: endogenous in cells; host or cells: primary human monocytes (CD14 microbeads) from buffy coats of healthy donors
# T1 sequence (Q9NR97 27-1041): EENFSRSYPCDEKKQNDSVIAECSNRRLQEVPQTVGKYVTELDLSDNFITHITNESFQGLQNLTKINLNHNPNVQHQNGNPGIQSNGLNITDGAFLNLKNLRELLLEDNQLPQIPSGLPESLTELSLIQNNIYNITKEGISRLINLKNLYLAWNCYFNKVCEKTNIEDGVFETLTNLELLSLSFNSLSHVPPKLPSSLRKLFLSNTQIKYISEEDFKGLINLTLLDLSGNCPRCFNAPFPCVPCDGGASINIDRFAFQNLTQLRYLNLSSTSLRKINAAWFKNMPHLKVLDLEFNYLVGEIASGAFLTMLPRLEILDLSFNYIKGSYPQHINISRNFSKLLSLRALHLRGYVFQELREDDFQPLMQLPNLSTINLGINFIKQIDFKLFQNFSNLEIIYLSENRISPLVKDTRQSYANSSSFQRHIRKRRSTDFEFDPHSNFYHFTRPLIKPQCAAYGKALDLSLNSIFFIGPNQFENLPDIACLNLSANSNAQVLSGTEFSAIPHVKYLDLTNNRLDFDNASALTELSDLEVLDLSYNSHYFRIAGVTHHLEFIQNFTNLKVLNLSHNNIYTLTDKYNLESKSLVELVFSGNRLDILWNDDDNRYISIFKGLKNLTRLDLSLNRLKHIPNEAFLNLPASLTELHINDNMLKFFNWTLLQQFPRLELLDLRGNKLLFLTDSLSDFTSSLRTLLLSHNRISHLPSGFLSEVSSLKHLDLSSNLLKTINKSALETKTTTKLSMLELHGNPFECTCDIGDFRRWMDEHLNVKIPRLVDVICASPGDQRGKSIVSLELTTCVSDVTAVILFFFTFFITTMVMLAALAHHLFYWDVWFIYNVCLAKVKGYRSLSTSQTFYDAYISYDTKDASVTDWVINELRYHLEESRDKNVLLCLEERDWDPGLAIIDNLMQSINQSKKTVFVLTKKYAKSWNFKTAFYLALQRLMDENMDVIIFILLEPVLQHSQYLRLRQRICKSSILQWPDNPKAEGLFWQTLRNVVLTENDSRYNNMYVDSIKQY
# Source text: Example B2—Inhibition of Human TLR8 in Human Monocytes
# When placed in cell culture, engagement of TLR8 with an agonist leads to expression and release of cytokines into the media.
# Buffy coats from anonymized, healthy human donors. CD14 microbeads (Milteny Cat. No. 130-050-201). TLR8 agonist, (5′-M2UGCUGCUUGUG-/glycerol/-GUGUUCGUCGUM2-5′ with M2=C6-linker, ORN8L, RNA oligonucleotide (Chem Genes Corp.). Human TNF-alpha ELISA kit (Mabtech Cat. No. 3510-1H-20). Human interleukin (IL)-1 beta ELISA kit (Mabtech Cat. No. 3415-1H-20).
# Following isolation of monocytes from buffy coats, human monocytes were plated into 96 well plates at approximately 200,000 cells per well. Test compounds were serially diluted and added to the plates. Immediately after adding test compounds, the TLR8 agonist (ORN8L, RNA oligonucleotide) was added to a final concentration of 100 μg/mL. Cells were incubated for 24 hours at 37° C. A portion of the media supernatant was analyzed for the presence of TNF-alpha and/or IL-1 beta using ELISA kits. The amount of TNF-alpha or IL-1 beta produced is a reflection of the amount of TLR8-dependent receptor activity. The IC50 values (the concentration at which 50% of the TLR8-dependent receptor activity is reduced) were calculated based upon the TLR8-dependent receptor activity over a range of different test compound concentrations.
# human TLR9 = molecular target: T2, human TLR9 (Homo sapiens, UniProt Q9NR96); assay: Inhibition of human TLR9 in human B cells (IL-6 ELISA); type: cell-based; conditions: for IC50: human B cells, agonist 1018 ISS 1 μM; for inhibits TLR9-dependent responses (in words): summary statement of the description
# T2 construct: endogenous in cells; host or cells: primary human B cells (CD19 microbeads) from buffy coats of healthy donors
# T2 sequence (Q9NR96 26-1032): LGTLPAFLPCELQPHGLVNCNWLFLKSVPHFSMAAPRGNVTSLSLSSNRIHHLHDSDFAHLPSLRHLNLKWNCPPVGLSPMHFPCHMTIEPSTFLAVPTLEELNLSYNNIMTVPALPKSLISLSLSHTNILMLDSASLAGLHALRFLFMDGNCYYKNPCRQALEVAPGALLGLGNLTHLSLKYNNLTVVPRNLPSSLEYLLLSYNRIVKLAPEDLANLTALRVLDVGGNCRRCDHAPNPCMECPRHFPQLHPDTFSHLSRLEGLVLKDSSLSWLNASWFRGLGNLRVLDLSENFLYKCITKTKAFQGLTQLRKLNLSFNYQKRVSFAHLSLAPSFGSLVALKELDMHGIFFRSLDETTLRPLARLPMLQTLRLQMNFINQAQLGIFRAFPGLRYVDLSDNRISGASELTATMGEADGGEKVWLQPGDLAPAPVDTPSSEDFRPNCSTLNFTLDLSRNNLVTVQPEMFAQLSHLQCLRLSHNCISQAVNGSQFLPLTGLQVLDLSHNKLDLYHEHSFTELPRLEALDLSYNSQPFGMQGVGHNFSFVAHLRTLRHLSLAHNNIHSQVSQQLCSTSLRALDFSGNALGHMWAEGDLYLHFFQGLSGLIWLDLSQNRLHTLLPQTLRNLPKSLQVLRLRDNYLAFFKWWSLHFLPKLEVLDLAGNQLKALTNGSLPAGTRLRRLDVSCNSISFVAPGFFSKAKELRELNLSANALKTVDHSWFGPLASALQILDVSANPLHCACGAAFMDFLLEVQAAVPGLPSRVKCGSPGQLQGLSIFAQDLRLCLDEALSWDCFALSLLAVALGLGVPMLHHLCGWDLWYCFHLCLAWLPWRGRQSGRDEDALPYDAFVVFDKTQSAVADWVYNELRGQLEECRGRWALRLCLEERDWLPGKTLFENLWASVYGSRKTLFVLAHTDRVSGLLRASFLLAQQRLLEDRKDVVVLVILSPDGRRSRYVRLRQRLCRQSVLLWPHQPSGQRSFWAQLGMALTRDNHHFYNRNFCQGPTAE
# Protocol: Example B3—Inhibition of Human TLR9 in Human B Cells
# When placed in cell culture, engagement of TLR9 with an agonist leads to expression and release of cytokines into the media.
# Buffy coats from anonymized, healthy human donors. CD19 microbeads (Miltenyi Cat. No. 130-050-301). TLR9 agonist, 1018 ISS, CpG-containing DNA oligonucleotide. Human interleukin (IL)-6 ELISA kit (Mabtech Cat. No. 3460-1H-20).
# Following isolation of […] from buffy coats, human B cells were plated into 96 well plates at approximately 300,000 cells per well. Test compounds were serially diluted and added to the plates. Test compounds were typically assayed using a concentration range from about 0.01 μM to about 10 μM. Certain test compounds were further assayed in an expanded dilution series using a compound concentration range from about 0.001 μM to about 30 μM. Immediately after adding test compounds, the TLR9 agonist (1018 ISS, CpG-containing DNA oligonucleotide) was added to a final concentration of 1 μM. Cells were incubated for 48 hours at 37° C. A portion of the media supernatant was analyzed for the presence of IL-6 using ELISA kits. The amount of IL-6 produced is a reflection of the amount of TLR9-dependent receptor activity. The IC50 values (the concentration at which 50% of the TLR9-dependent receptor activity is reduced) were calculated based upon the TLR9-dependent receptor activity over a range of different test compound concentrations.
# [1] = TNF-alpha readout, read-out: Human TLR8 IC50 TNF-a
# [2] = IL-6 readout, 48 hours, range about 0.01 to 10 μM, read-out: Human TLR9 IC50
# [3] = IL-6, 48 hours, expanded dilution series about 0.001 to 30 μM, read-out: Human TLR9 IC50, expanded dilution series
# [4] = IL-1 beta readout, read-out: Human TLR8 IC50 IL-1b
IC50 (human TLR8; [1]) [nM],IC50 (human TLR9; [2]) [nM],IC50 (human TLR9; [3]) [nM],inhibits TLR9-dependent responses (in words) (human TLR9),IC50 (human TLR8; [4]) [nM],Compound
≥ 20000,3770,–,–,–,CNC(=O)C1CCN(c2nnc(C)c3c(C)n(-c4ccc(C)cc4)nc23)CC1 [2-2]
≥ 20000,557,–,–,–,"Cc1ccc(-n2cc3cnnc(N4CCC(C(=O)NCCN5CCOCC5)CC4)c3n2)cc1 [compound 64, N-(2-morpholinoethyl)-1-(2-(p-tolyl)-2H-pyrazolo[3,4-d]pyridazin-7-yl)piperidine-4-carboxamide]"
≥ 20000,1,14,inhibit,–,"Cc1ccc(-n2nc3c(N4CCC(C(=O)N5CCC(CN(C)C)C5)CC4)nnc(C)c3c2C)cc1 (stereo not drawn) [compound 45, (1-(3,4-dimethyl-2-(p-tolyl)-2H-pyrazolo[3,4-d]pyridazin-7-yl)piperidin-4-yl)(3-((dimethylamino)methyl)pyrrolidin-1-yl)methanone]"
≥ 20000,1140,–,–,–,"Cc1ccc(-n2nc3c(N4CCC(C(=O)N5CCC6(CC5)CNC6)CC4)nnc(C)c3c2C)cc1 [compound 73, (1-(3,4-dimethyl-2-(p-tolyl)-2H-pyrazolo[3,4-d]pyridazin-7-yl)piperidin-4-yl)(2,7-diazaspiro[3.5]nonan-7-yl)methanone]"
≥ 20000,3710,–,–,–,"Cc1ccc(-n2nc3c(N4CCC(C(=O)NCCCN(C)C)CC4)nnc(-c4ccccc4)c3c2C)cc1 [compound 35, N-(3-(dimethylamino)propyl)-1-(3-methyl-4-phenyl-2-(p-tolyl)-2H-pyrazolo[3,4-d]pyridazin-7-yl)piperidine-4-carboxamide]"
> 10000,137,–,–,> 10000,"Cc1ccc(-n2nc3c(N4CCC(C(=O)NC5CCN(C)CC5)CC4)nnc(C)c3c2C)cc1 [compound 18, 1-(3,4-dimethyl-2-(p-tolyl)-2H-pyrazolo[3,4-d]pyridazin-7-yl)-N-(1-methylpiperidin-4-yl)piperidine-4-carboxamide]"
1120,18,–,–,1010,"CCCN1CCN(C(=O)C2CCCN(c3nnc(C)c4c(C)n(-c5ccccc5)nc34)C2)CC1 (stereo not drawn) [63x, (1-(3,4-dimethyl-2-phenyl-2H-pyrazolo[3,4-d]pyridazin-7-yl)piperidin-3-yl)(4-propylpiperazin-1-yl)methanone]"
> 10000,55,–,–,> 10000,"Cc1ccc(-n2nc3c(N4CCC(C(=O)NCCCCCN(C)C)CC4)nnc(C)c3c2C)cc1 [compound 32, 1-(3,4-dimethyl-2-(p-tolyl)-2H-pyrazolo[3,4-d]pyridazin-7-yl)-N-(5-(dimethylamino)pentyl)piperidine-4-carboxamide]"
> 10000,31,–,inhibit,> 10000,"Cc1ccc(-n2nc3c(N4CCC(CC(=O)NCCCN(C)C)CC4)nnc(C)c3c2C)cc1 [Compound No. 22, 2-(1-(3,4-dimethyl-2-(p-tolyl)-2H-pyrazolo[3,4-d]pyridazin-7-yl)piperidin-4-yl)-N-(3-(dimethylamino)propyl)acetamide]"
≥ 20000,182,–,–,–,"Cc1ccc(-n2nc3c(N4CCC(CCC(=O)NC5CN(C)C5)CC4)nnc(C)c3c2C)cc1 [compound 66, 3-(1-(3,4-dimethyl-2-(p-tolyl)-2H-pyrazolo[3,4-d]pyridazin-7-yl)piperidin-4-yl)-N-(1-methylazetidin-3-yl)propanamide]"
–,7,9,–,–,"Cc1ccc(-n2cc3cncc(N4CCC(C(=O)NCCCN(C)C)CC4)c3n2)cc1 [Compound No. 55, N-(3-(dimethylamino)propyl)-1-(2-(p-tolyl)-2H-pyrazolo[4,3-c]pyridin-7-yl)piperidine-4-carboxamide]"
–,18,24,–,–,"Cc1ccc(-n2nc3c(N4CCC(C)(C(=O)NCCCN(C)C)CC4)nnc(C)c3c2C)cc1 [compound 20, 1-(3,4-dimethyl-2-(p-tolyl)-2H-pyrazolo[3,4-d]pyridazin-7-yl)-N-(3-(dimethylamino)propyl)-4-methylpiperidine-4-carboxamide]"
–,–,–,inhibit,–,"Cc1ccc(-n2nc3c(N4CCC(C(=O)N5CC[C@H](CN(C)C)C5)CC4)nnc(C)c3c2C)cc1 [Compound 45a, (R)-(1-(3,4-dimethyl-2-(p-tolyl)-2H-pyrazolo[3,4-d]pyridazin-7-yl)piperidin-4-yl)(3-((dimethylamino)methyl)pyrrolidin-1-yl)methanone]"
–,–,–,inhibit,–,"Cc1ccc(-n2nc3c(N4CCC(C(=O)N5CC[C@@H](CN(C)C)C5)CC4)nnc(C)c3c2C)cc1 [Compound 45b, (S)-(1-(3,4-dimethyl-2-(p-tolyl)-2H-pyrazolo[3,4-d]pyridazin-7-yl)piperidin-4-yl)(3-((dimethylamino)methyl)pyrrolidin-1-yl)methanone]"
